Consider 10 compounds from US20230322722A1, “MODULATORS OF MYC FAMILY PROTO-ONCOGENE PROTEIN” (Nalo Therapeutics, priority 2020, published 2023).

Test [1] concerns the target T1, MycC protein (c-myc) (Homo sapiens, UniProt P01106).
T1 construct: either 2×10^6 of L-363 (human leukemia cell line) cells; endogenous in cells; host or cells: L-363 / L363 human leukemia cells
The test can be described thus: Degradation of MycC protein, 24 h treatment, JESS Western, L363 cells (Example 161). The class given is cell-based. Particulars: L-363 cells. The procedure: (§1) For L363 cells (suspension), 1E6 cells were plated into each well of a 6 well plate. For SK-N-BE(2) cells (adherent), 5E5 cells were plated into each well of a 6 well dish. […] All compounds were diluted to 10 mM in DMSO. Cells were treated with the compound for 24 hrs, then for both cell types, media containing cells were removed from wells into a 15 ml centrifuge tube, and remaining adherent SK-N-BE(2) cells were also scraped from the wells into the appropriate tubes. Tubes were centrifuged, cells were washed with PBS then re-centrifuged to pellet cells. A RIPA buffer cocktail was added to the cells on ice for 5 mins. Cell lysates were clarified by centrifugation and stored at −80 degrees until required. BCA assay was performed on each lysate to determine the protein concentration.
(§2) For validation studies of antibodies, lysates and antibodies were used at a number of concentrations (Lysates: 2, 1, 0.2 mg/ml; Antibodies: 1 in 50, 1 in 200 dilution). Once an appropriate lysate concentration and antibody concentration was determined, samples were screened in the JESS technology (Protein Simple, San Jose, CA—https://www.proteinsimple.com/jess.html).
(§3) Target protein antibodies (n-myc and c-myc) were detected in the chemi-luminescence channel and loading controls (tubulin and GAPDH) were detected using a Near Infra Red (NIR) labeled secondary antibody.
(§4) For SK-N-EB2 adherent cells, 5E5 cells in 1.9 mls media were plated into 6 well dishes and incubated for 24 hrs. […] Cells were scrapped off the plate, centrifuged, washed with PBS, centrifuged, then a RIPA buffer cocktail added to the cells (100 ul), centrifuged and stored at −80 for later analysis. For L363 suspension cells, 1E6 cells were plated into […] (950 ul media) and incubated for 24 hrs. […] Cells were aspirated into tubes, centrifuged, washed with PBS, centrifuged, then a RIPA buffer cocktail added to the cells (100 ul), centrifuged and stored at −80 for later analysis.
(§5) For Western blot, a BCA (total protein) assay was run on all samples, these were then run in batches of 5 compounds plus control (DMSO) on each Western blot run—n-myc and c-myc were run in separate experiments in the chemiluminescence channel. Both tubulin and GAPDH were run as loading controls in all lanes in the near infra red channel.

Test [2] has as its target T2, MycN protein (n-myc) (Homo sapiens, UniProt P04198).
T2 construct: either 2×10^6 of L-363 (human leukemia cell line) or SKNBE2 (neuroblastoma cell line) cells; endogenous in cells; host or cells: SKNBE2 / SK-N-BE(2) neuroblastoma cells
T2 sequence (P04198 1-464): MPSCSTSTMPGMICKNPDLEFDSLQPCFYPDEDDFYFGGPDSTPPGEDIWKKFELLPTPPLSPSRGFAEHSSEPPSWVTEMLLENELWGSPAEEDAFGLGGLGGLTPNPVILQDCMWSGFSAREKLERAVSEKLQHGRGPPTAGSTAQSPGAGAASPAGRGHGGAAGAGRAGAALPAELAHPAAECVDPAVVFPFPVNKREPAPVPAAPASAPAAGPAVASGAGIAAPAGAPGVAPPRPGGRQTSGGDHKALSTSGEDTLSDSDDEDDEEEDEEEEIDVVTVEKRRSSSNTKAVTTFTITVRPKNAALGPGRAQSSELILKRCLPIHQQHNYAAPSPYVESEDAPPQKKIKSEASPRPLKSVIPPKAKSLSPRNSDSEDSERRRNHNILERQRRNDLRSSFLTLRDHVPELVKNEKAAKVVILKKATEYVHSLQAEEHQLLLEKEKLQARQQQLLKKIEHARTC
The test can be described thus: Degradation of MycN protein, 24 h treatment, JESS Western, SK-N-BE(2) cells (Example 161). Particulars: SKNBE2 cells. The class given is cell-based. Here is the method: as §1, §2, §3, §4, §5

A value given as a limit tells only on which side of the number the result lay.

T1 sequence (P01106 whole entry): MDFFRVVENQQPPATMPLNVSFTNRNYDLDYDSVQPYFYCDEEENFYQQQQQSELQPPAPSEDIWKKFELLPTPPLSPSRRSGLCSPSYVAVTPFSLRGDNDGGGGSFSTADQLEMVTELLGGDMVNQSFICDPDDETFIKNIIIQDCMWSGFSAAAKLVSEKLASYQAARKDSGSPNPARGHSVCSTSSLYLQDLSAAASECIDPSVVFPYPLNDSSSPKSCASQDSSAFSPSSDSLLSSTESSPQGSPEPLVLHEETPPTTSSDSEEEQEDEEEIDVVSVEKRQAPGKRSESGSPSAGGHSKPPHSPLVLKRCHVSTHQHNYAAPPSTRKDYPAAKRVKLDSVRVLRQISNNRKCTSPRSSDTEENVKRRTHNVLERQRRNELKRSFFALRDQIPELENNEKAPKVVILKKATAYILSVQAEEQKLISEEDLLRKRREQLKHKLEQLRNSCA

Take `CN(c1nccc(Nc2cc(C3CC3)[nH]n2)n1)C1CC2(C1)CN(CCCc1nc3ccccc3o1)C2` [Compound 29, N2-(2-(3-(Benzo[d]oxazol-2-yl)propyl)-2-azaspiro[3.3]heptan-6-yl)-N4-(5-cyclopropyl-1H-pyrazol-3-yl)-N2-methylpyrimidine-2,4-diamine]: in test [1], the inhibition (usually how much of the control response was suppressed) at 0.5 µM lay in the range of 50 to 79%, the inhibition at 1 µM was in the range of 80 to 100%, the inhibition at 3 µM is 80 to 100% and the inhibition at 6 µM was in the range of 80 to 100%. In test [2], this compound yielded an inhibition at 0.5 µM of 20 to 49%, an inhibition at 1 µM of 20 to 49%, an inhibition at 3 µM of 50 to 79% and an inhibition at 6 µM of 80 to 100%.

On to `CN(c1nccc(Nc2cc(C3CC3)[nH]n2)n1)C1CC2(C1)CN(C(=O)c1cn(C)nn1)C2` [Compound 31, (6-((4-((5-Cyclopropyl-1H-pyrazol-3-yl)amino)pyrimidin-2-yl)(methyl)amino)-2-azaspiro[3.3]heptan-2-yl)(1-methyl-1H-1,2,3-triazol-4-yl)methanone], for which, in test [1], the inhibition at 1 µM fell in the range of 80 to 100%, the inhibition at 3 µM fell in the range of 80 to 100% and the inhibition at 6 µM was in the range of 80 to 100%. In test [2], the inhibition at 0.5 µM was in the range of 20 to 49%, the inhibition at 1 µM fell in the range of 50 to 79%, the inhibition at 3 µM is 80 to 100% and the inhibition at 6 µM was 80 to 100%.

In test [1], `CN(c1nccc(Nc2cc(C3CC3)[nH]n2)n1)C1CC2(C1)CN(C(=O)C1CCOCC1)C2` [Compound 32, (6-((4-((5-Cyclopropyl-1H-pyrazol-3-yl)amino)pyrimidin-2-yl)(methyl)amino)-2 azaspiro[3.3]heptan-2-yl)(tetrahydro-2H-pyran-4-yl)methanone] showed an inhibition at 3 µM of 80 to 100% and an inhibition at 6 µM of 80 to 100%. In test [2], this compound yielded an inhibition at 3 µM of 80 to 100% and an inhibition at 6 µM of 80 to 100%.

In turn, `Cc1nnsc1C(=O)N1CC2(CC(N(C)c3nccc(Nc4cc(C5CC5)[nH]n4)n3)C2)C1` [Compound 33, (6-((4-((5-Cyclopropyl-1H-pyrazol-3-yl)amino)pyrimidin-2-yl)(methyl)amino)-2-azaspiro[3.3]heptan-2-yl)(4-methyl-1,2,3-thiadiazol-5-yl)methanone] displayed an inhibition at 3 µM in test [1] of 80 to 100%. Besides, the inhibition at 6 µM in test [1] and in test [2] was 80 to 100% throughout.

Take `CN(c1nccc(Nc2cc(C3CC3)[nH]n2)n1)C1CC2(C1)CN(C(=O)c1cccc(C(F)(F)F)c1)C2` [Compound 34, (6-((4-((5-Cyclopropyl-1H-pyrazol-3-yl)amino)pyrimidin-2-yl)(methyl)amino)-2 azaspiro[3.3]heptan-2-yl)(3-(trifluoromethyl)phenyl)methanone]: in test [1], the inhibition at 3 µM is under 20% and the inhibition at 6 µM was in the range of 80 to 100%. In test [2], the inhibition at 0.5 µM was under 20%, the inhibition at 1 µM is under 20%, the inhibition at 3 µM fell in the range of 80 to 100% and the inhibition at 6 µM is 80 to 100%.

In test [1], `CN(c1nccc(Nc2cc(C3CC3)[nH]n2)n1)C1CC2(C1)CN(S(=O)(=O)c1cnn(C)c1)C2` [Compound 35, N4-(5-Cyclopropyl-1H-pyrazol-3-yl)-N2-methyl-N2-{2-[(1-methyl-1H-pyrazol-4-yl)sulfonyl]-2-azaspiro[3.3]heptan-6-yl}pyrimidine-2,4-diamine] yielded an inhibition at 0.5 µM of 20 to 49%, an inhibition at 1 µM of 50 to 79%, an inhibition at 3 µM of 80 to 100% and an inhibition at 6 µM of 80 to 100%. In test [2], the inhibition at 0.5 µM was under 20%, the inhibition at 1 µM lay in the range of 20 to 49%, the inhibition at 3 µM lay within 50 to 79% and the inhibition at 6 µM is 80 to 100%.

Turning to `CN1CCC(Nc2nccc(Nc3cc(C4CC4)[nH]n3)n2)CC1` [Compound 37, N4-(5-Cyclopropyl-1H-pyrazol-3-yl)-N2-(1-methylpiperidin-4-yl)pyrimidine-2,4-diamine], in test [1], the inhibition at 3 µM is under 20% and the inhibition at 6 µM was in the range of 80 to 100%. In addition, in test [2], the inhibition at 1 µM was under 20%, the inhibition at 3 µM is 20 to 49% and the inhibition at 6 µM lay within 50 to 79%.

In test [1], `CN(c1nccc(Nc2cc(C3CC3)[nH]n2)n1)C1CCN(C2CC2)CC1` [Compound 38, N4-(5-Cyclopropyl-1H-pyrazol-3-yl)-N2-(1-cyclopropylpiperidin-4-yl)-N2-methylpyrimidine-2,4 diamine] displayed an inhibition at 0.5 µM of 50 to 79%, an inhibition at 1 µM of 80 to 100%, an inhibition at 3 µM of 80 to 100% and an inhibition at 6 µM of 80 to 100%. In test [2], this compound gave an inhibition at 0.5 µM of 20 to 49%, an inhibition at 1 µM of 50 to 79%, an inhibition at 3 µM of 80 to 100% and an inhibition at 6 µM of 80 to 100%.

In test [1], `CN(c1nccc(Nc2cc(C3CC3)[nH]n2)n1)C1CCN(Cc2cccc(S(C)(=O)=O)c2)CC1` [Compound 39, N4-(5-Cyclopropyl-1H-pyrazol-3-yl)-N2-methyl-N2-(1-(3-(methylsulfonyl)benzyl)piperidin-4-yl)pyrimidine-2,4-diamine] displayed an inhibition at 1 µM of 50 to 79%, an inhibition at 3 µM of 80 to 100% and an inhibition at 6 µM of 80 to 100%. In test [2], this compound came in with an inhibition at 3 µM of 80 to 100% and an inhibition at 6 µM of 80 to 100%.

As for `CN(c1nccc(Nc2cc(C3CC3)[nH]n2)n1)C1CCN(Cc2cc(F)cc(F)c2)CC1` [Compound 40, N4-(5-Cyclopropyl-1H-pyrazol-3-yl)-N2-(1-(3,5-difluorobenzyl)piperidin-4-yl)-N2-methylpyrimidine-2,4-diamine], in test [1], the inhibition at 0.5 µM is under 20%, the inhibition at 1 µM fell in the range of 80 to 100%, the inhibition at 3 µM was in the range of 80 to 100% and the inhibition at 6 µM lay within 80 to 100%. For the same compound, in test [2], the inhibition at 0.5 µM is under 20%, the inhibition at 1 µM lay within 20 to 49%, the inhibition at 3 µM was in the range of 80 to 100% and the inhibition at 6 µM lay within 80 to 100%.
